Among the data in PubChem BioAssay (NCI) are TGI values, retold here.

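1) Cells in 96-well plates. 2) Compound, 48 h, 5 concentrations. 3) Linear interpolation between surrounding doses. 4) Unreached endpoint = highest concentration. The concentration for full growth arrest is given as TGI.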

Among the test systems are DU-145 prostate; IGROV1 ovarian; RPMI-8226 leukemia; OVCAR-4 ovarian; A549 NSCLC; LOX IMVI melanoma; EKVX NSCLC; RXF 393 renal; ACHN renal; SK-MEL-5 melanoma; HCT-15 colon.
Common to all, as to experiment: DTP human tumour cell line panel, 48 h

Consider `COC(=O)CCc1c(Cc2ccc[nH]2)[nH]c(C(=O)OCc2ccccc2)c1C`, for which the total growth inhibition concentration (TGI) – broadly, the concentration giving total growth inhibition – with DU-145 prostate was over 100 µM; with IGROV1 ovarian, 31.4 µM; in the experiment with RPMI-8226 leukemia, 76.5 µM; with OVCAR-4 ovarian, 34 µM; with A549 NSCLC, over 100 µM; with LOX IMVI melanoma, 35.1 µM. The concentration for total growth inhibition (TGI) with EKVX NSCLC turned out to be 91.3 µM; with RXF 393 renal, 49 µM; with ACHN renal, 70.6 µM; in the experiment on SK-MEL-5 melanoma, 29.2 µM; in the experiment with HCT-15 colon, 36.3 µM.
Regarding `NC(Cc1c[nH]c2cc([N+](=O)[O-])ccc12)C(=O)O` (stereo unspecified), the TGI in the experiment on DU-145 prostate, in the experiment on IGROV1 ovarian, in the experiment with RPMI-8226 leukemia, with OVCAR-4 ovarian, with A549 NSCLC and with LOX IMVI melanoma was over 100 µM throughout. The concentration for total growth inhibition (TGI) in the experiment on EKVX NSCLC, with RXF 393 renal, in the experiment with ACHN renal, in the experiment with SK-MEL-5 melanoma and with HCT-15 colon was over 100 µM throughout.
On to `Oc1ccccc1C1C=C(c2ccccc2)NC(N2CCCCC2)=C1c1nc2ccccc2[nH]1` (stereo unspecified), for which the total growth inhibition concentration (TGI) in the experiment with DU-145 prostate was determined as 66.6 µM; with IGROV1 ovarian it was 27.8 µM; in the experiment with RPMI-8226 leukemia, 49 µM; in the experiment on OVCAR-4 ovarian, 30.7 µM; in the experiment with A549 NSCLC, 29.2 µM; with LOX IMVI melanoma, 31.2 µM. In addition, the TGI is 18.8 µM in the experiment on EKVX NSCLC; 24.7 µM in the experiment with RXF 393 renal; 47.7 µM in the experiment with ACHN renal; 27 µM with SK-MEL-5 melanoma; 35.9 µM in the experiment on HCT-15 colon.
For the molecule `Cc1nnc2n(c1=O)CCN2C`, the TGI in the experiment on DU-145 prostate, in the experiment on IGROV1 ovarian, with RPMI-8226 leukemia, in the experiment on OVCAR-4 ovarian, in the experiment with A549 NSCLC and in the experiment on LOX IMVI melanoma was over 100 µM each time. Moreover, the TGI with EKVX NSCLC, with RXF 393 renal, with ACHN renal, with SK-MEL-5 melanoma and in the experiment with HCT-15 colon was over 100 µM throughout.
For `Cc1ccc(S(=O)(=O)[C@@H](Cl)[C@H]2N=C(Cl)NN=C2c2ccccc2)cc1`, the total growth inhibition concentration (TGI) in the experiment with DU-145 prostate was 70.9 µM; in the experiment on IGROV1 ovarian, 55.4 µM; with RPMI-8226 leukemia, over 100 µM; in the experiment on OVCAR-4 ovarian, 36.6 µM; with A549 NSCLC, over 100 µM; in the experiment on LOX IMVI melanoma, 51.8 µM. Further, the concentration for total growth inhibition (TGI) with EKVX NSCLC was over 100 µM; with RXF 393 renal, 37.3 µM; with ACHN renal, over 100 µM; with SK-MEL-5 melanoma, 34.5 µM; with HCT-15 colon it was 54.5 µM.
Take `CC(C)(C)CC(C)(C)NC(=S)NO`: the concentration for total growth inhibition (TGI) with DU-145 prostate, in the experiment on IGROV1 ovarian, in the experiment with RPMI-8226 leukemia, in the experiment on OVCAR-4 ovarian, in the experiment on A549 NSCLC and in the experiment with LOX IMVI melanoma was over 100 µM each time. Further, the TGI in the experiment with EKVX NSCLC, in the experiment on RXF 393 renal, in the experiment with ACHN renal, in the experiment on SK-MEL-5 melanoma and with HCT-15 colon was over 100 µM throughout.
